Test: Virosomal fusion activity before and after lyophilization (FRET assay)
Conditions: cationic lipid as integral virosomal membrane component; after lyophilization and reconstitution
Description: FRET Assay: For in vitro fusion measurements by fluorescence resonance energy transfer (FRET) (Struck et al., Biochemistry 20(14):4093-99, 1981; Loyter et al., Methods Biochem. Anal. 33:129-64, 1988), the following assay was developed: 0.75 mol % of Bodipy 530/550-DHPE and 0.25 mol % of N-Rh-DHPE were incorporated into liposomes consisting of PC/DPPG (70:30). Fluorescence measurements were carried out at discrete temperatures between 4° C. and 42° C. in 5 mM sodium phosphate buffer pH 7.5, 100 mM NaCl, in a final volume of 0.8 ml in 2.5 ml PMMA micro-cuvettes (VWR, Switzerland) under continuous stirring. […] The increase in fluorescence was recorded every 5 seconds at excitation and emission wavelengths of 538 nm and 558 nm, respectively, with an excitation slit of 2.5 nm and an emission slit of 15.0 nm. Measurements were carried out with an LS 55 Luminescence spectrometer (Perkin Elmer Instruments, USA) equipped with a thermostated cuvette holder and a magnetic stirring device. The maximal fluorescence at infinite probe dilution was reached after addition of Triton X-100 (0.5% v/v final concentration). For calibration of the fluorescence scale the initial residual fluorescence of the liposomes was set to zero and the fluorescence at infinite probe dilution to 100%.

Row | SMILES | preservation of virosomal fusion-activity
1 | CC(C)CCC[C@@H](C)[C@H]1CC[C@H]2[C@@H]3CC=C4C[C@@H](OC(=O)NCCN(C)C)CC[C@]4(C)[C@H]3CC[C@]12C.Cl [DC-Chol, 3β[N-(N′,N′-dimethylammonioethane)-carbamoyl]cholesterol chloride] | superior properties in preserving virosomal fusion-activity
2 | CC(C)CCC[C@@H](C)[C@H]1CC[C@H]2[C@@H]3CC=C4C[C@@H](OC(=O)NCC[N+](C)(C)C)CC[C@]4(C)[C@H]3CC[C@]12C.[Cl-] [TC-Chol, 3β[N-(N′,N′,N′-trimethylammonioethane)-carbamoyl]cholesterol chloride] | superior properties in preserving virosomal fusion-activity

— patent publication US20080268028A1, “Lyophilization of virosomes” (Pevion Biotech Ltd., priority 2004, published 2008)
